Assay results taken from ChEMBL document CHEMBL1201862, “PubChem BioAssay data set” (2004).
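All cell lines were grown in 96-well plates and treated with compound for 48 hours. GI50: concentration for 50% inhibition of growth.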 Calls of active or inactive are those of the source. Rule as the data show it: active = GI50 up to about 1.1 µM and inactive = higher.

Tests used:
Assay in all cases: inhibition of tumour cell growth, NCI panel, 48 h
[1] = system: NCI-H226
[2] = system: HT-29
[3] = system: SNB-75
[4] = system: NCI-H460
[5] = system: HCT-116
[6] = system: CAKI-1
[7] = system: UACC-257
[8] = system: DU-145
[9] = system: Hs-578T
[10] = system: UO-31
[11] = system: T47D
[12] = system: M14
[13] = system: SK-MEL-5
[14] = system: PC-3
[15] = system: SNB-19
[16] = system: OVCAR-3
[17] = system: KM12
[18] = system: SF-268
[19] = system: MDA-MB-231
[20] = system: BT-549

Measured: GI50

COc1cc(CC(C)N)ccc1O (stereo unspecified)
inactive: [1] > 100 µM | [2] > 100 µM | [3] > 100 µM | [4] > 100 µM | [5] > 100 µM | [6] > 100 µM | [7] > 100 µM | [8] > 100 µM | [9] > 100 µM | [10] > 100 µM | [11] > 100 µM | [12] > 100 µM | [13] > 100 µM | [14] > 100 µM | [15] > 100 µM | [16] > 100 µM | [17] > 100 µM | [18] > 100 µM

CC1CN(c2ccc(Cl)cc2)CC(C)(C)OC(=O)O1 (stereo unspecified)
inactive: [1] > 100 µM | [2] > 100 µM | [3] > 100 µM | [4] > 100 µM | [5] > 100 µM | [6] > 100 µM | [7] > 100 µM | [10] > 100 µM | [12] > 100 µM | [13] > 100 µM | [15] > 100 µM | [16] > 100 µM | [17] > 100 µM | [18] > 100 µM

O=C(O)C1Cc2[nH]cnc2CN1 (stereo unspecified)
inactive: [1] > 100 µM | [2] > 100 µM | [3] > 100 µM | [4] > 100 µM | [5] > 100 µM | [6] > 100 µM | [7] > 100 µM | [10] > 100 µM | [12] > 100 µM | [13] > 100 µM | [15] > 100 µM | [16] > 100 µM | [17] > 100 µM | [18] > 100 µM

O=C(Oc1ccc(C(c2c(O)c3ccccc3oc2=O)c2c(O)c3ccccc3oc2=O)cc1)c1ccc(C(=O)c2ccccc2)cc1
inactive: [1] 10.6 µM | [2] 17.7 µM | [3] 17.7 µM | [4] 22.1 µM | [5] 34.2 µM | [6] 28 µM | [7] 17.2 µM | [8] 29.1 µM | [19] 35.6 µM | [9] 37.7 µM | [10] 17.8 µM | [11] 34.5 µM | [13] 29.3 µM | [14] 18.7 µM | [15] 17.4 µM | [16] 18.3 µM | [17] 17.1 µM | [18] 25.6 µM

CCOP(=O)(C=C=C(C)C)OCC
inactive: [1] > 100 µM | [2] > 100 µM | [3] > 100 µM | [4] > 100 µM | [5] > 100 µM | [6] > 100 µM | [7] > 100 µM | [8] > 100 µM | [9] > 100 µM | [11] > 100 µM | [12] > 100 µM | [13] > 100 µM | [14] > 100 µM | [15] > 100 µM | [16] > 100 µM | [17] > 100 µM | [18] > 100 µM

CC12c3ccccc3C(OC=O)(c3ccccc31)C1(C)c3ccccc3C2(OC=O)c2ccccc21
inactive: [1] > 100 µM | [2] > 100 µM | [3] 81.1 µM | [4] 81.3 µM | [5] > 100 µM | [6] > 100 µM | [7] > 100 µM | [10] > 100 µM | [12] > 100 µM | [13] > 100 µM | [15] > 100 µM | [16] > 100 µM | [17] > 100 µM | [18] > 100 µM

CN1C(=O)C(O)CC1c1ccccc1F (stereo unspecified)
inactive: [1] > 100 µM | [2] > 100 µM | [3] > 100 µM | [4] > 100 µM | [5] > 100 µM | [6] > 100 µM | [7] > 100 µM | [20] > 100 µM | [8] > 100 µM | [19] > 100 µM | [10] > 100 µM | [12] > 100 µM | [13] > 100 µM | [14] > 100 µM | [15] > 100 µM | [16] > 100 µM | [17] > 100 µM

CC(=O)OCC1OC(N2C(=O)C(=O)c3cc(C)ccc32)C(OC(C)=O)C(OC(C)=O)C1OC(C)=O (stereo unspecified)
inactive: [1] > 100 µM | [2] 37.2 µM | [3] > 100 µM | [4] > 100 µM | [5] 59.7 µM | [6] > 100 µM | [7] > 100 µM | [10] > 100 µM | [12] 66.5 µM | [13] 58.7 µM | [15] > 100 µM | [16] 99.3 µM | [17] > 100 µM | [18] 49.5 µM
